The values that follow come from patent US12012409B2, “Bicyclic heterocycles as FGFR inhibitors” (Incyte Corporation, priority 2020, dated 2024).

Common to all, as to format: biochemical
Holding throughout (conditions): wild-type un-phosphorylated protein; pre-incubated for 4 hours; ATP near or below Km

Assay [1] concerns the target wild-type un-phosphorylated FGFR3 (Homo sapiens, UniProt P22607). Kind of assay: FGFR Enzymatic Assay (FRET peptide phosphorylation), FGFR3. The protocol:
(§1) The inhibitor potency of the exemplified compounds was determined in an enzyme discontinuous assay that measures peptide phosphorylation using FRET measurements to detect product formation. Inhibitors were serially diluted in DMSO and a volume of 0.2 μL was transferred to the wells of a 384-well plate. […] Appropriate controls (enzyme blank and enzyme with no inhibitor) were included on the plate. […] The ATP Km values were pre-determined in a separate series of experiments. […] The plate was allowed to equilibrate for ˜10 minutes at ambient temperature before scanning on a PheraStar plate reader (BMG Labtech) instrument.
(§2) Either GraphPad prism or XLfit was used to analyze the data. The IC50 values were derived by fitting the data to a four parameter logistic equation producing a sigmoidal dose-response curve with a variable Hill coefficient. Prism equation: Y=Bottom+(Top−Bottom)/(1+10^((LogIC50−X)*Hill slope)); XLfit equation: Y=(A+((B−A)/(1+((X/C)^D)))) where X is the logarithm of inhibitor concentration and Y is the response.

Assay [2] concerns the target wild-type un-phosphorylated FGFR1 (Homo sapiens, UniProt P11362). Kind of assay: FGFR Enzymatic Assay (FRET peptide phosphorylation), FGFR1. The protocol: as §1, §2
Assay [3] deals with wild-type un-phosphorylated FGFR2 (Homo sapiens, UniProt P21802). Kind of assay: FGFR Enzymatic Assay (FRET peptide phosphorylation), FGFR2. The method, then:
as §1, §2
The data in Table 1 was measured in wild-type un-phosphorylated FGFR1, FGFR2, FGFR3 and FGFR4 protein.

Sequence of wild-type un-phosphorylated FGFR2 (P21802 22-821): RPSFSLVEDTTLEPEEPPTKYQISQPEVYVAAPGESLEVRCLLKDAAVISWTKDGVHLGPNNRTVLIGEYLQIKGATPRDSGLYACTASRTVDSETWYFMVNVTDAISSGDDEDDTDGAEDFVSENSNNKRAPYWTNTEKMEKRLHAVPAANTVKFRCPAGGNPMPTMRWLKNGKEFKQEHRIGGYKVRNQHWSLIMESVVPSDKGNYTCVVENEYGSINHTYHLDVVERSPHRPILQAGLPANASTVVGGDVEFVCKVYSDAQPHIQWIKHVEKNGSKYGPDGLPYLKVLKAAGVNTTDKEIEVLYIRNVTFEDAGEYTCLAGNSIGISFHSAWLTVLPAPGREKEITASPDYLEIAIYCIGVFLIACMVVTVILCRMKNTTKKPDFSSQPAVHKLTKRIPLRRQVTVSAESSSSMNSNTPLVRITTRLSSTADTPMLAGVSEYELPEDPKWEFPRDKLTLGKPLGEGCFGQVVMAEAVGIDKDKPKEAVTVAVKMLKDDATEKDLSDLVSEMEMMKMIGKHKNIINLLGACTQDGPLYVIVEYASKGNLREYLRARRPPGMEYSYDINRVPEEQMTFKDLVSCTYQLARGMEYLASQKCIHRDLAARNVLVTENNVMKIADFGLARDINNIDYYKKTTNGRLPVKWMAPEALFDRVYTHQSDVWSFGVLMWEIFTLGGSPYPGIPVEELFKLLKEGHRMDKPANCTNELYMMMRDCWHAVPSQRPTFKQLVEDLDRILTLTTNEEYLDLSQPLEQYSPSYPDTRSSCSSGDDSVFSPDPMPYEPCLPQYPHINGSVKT
Sequence of wild-type un-phosphorylated FGFR3 (P22607 23-806): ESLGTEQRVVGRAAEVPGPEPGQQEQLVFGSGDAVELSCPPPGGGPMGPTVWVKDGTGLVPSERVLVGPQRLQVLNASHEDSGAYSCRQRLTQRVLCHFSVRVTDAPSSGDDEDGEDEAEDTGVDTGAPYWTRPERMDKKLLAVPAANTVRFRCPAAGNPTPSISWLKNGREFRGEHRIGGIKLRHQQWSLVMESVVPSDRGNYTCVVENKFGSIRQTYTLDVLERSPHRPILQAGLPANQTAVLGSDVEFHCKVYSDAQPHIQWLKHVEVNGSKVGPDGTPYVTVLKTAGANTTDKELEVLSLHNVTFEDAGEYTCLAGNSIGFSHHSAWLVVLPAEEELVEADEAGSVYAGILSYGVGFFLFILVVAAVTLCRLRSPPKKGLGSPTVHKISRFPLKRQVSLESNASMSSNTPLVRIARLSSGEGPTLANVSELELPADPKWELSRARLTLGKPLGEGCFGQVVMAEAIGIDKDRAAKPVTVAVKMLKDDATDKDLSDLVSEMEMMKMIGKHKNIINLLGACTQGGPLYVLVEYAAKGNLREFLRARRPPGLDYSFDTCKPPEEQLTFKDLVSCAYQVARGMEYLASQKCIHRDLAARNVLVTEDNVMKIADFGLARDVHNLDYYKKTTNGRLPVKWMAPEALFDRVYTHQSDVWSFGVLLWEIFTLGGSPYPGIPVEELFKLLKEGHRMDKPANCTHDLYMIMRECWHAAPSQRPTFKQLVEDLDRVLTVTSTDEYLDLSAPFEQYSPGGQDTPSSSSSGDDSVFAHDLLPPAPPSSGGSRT
Sequence of wild-type un-phosphorylated FGFR1 (P11362 22-822): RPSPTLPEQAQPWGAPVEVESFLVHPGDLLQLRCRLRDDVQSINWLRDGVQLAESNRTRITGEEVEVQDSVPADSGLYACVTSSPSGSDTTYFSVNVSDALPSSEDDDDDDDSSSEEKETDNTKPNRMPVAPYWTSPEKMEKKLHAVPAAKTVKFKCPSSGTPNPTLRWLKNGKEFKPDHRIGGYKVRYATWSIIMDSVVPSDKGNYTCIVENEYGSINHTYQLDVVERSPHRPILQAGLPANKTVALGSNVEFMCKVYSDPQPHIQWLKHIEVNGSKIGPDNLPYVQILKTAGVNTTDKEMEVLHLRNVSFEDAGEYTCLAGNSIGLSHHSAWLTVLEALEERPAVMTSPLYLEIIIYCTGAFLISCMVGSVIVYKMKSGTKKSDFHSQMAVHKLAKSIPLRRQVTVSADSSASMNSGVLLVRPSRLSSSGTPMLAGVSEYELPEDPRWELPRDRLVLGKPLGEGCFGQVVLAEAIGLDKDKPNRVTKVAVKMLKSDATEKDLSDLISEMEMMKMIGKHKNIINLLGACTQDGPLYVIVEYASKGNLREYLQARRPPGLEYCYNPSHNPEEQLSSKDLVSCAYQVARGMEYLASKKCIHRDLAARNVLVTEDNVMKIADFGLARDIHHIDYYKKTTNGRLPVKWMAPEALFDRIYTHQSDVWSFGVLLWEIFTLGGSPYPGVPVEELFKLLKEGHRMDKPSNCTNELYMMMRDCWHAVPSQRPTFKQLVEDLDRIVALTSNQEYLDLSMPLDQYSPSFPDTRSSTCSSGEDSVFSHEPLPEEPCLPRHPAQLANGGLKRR

Turning to `CNC(=O)c1cc(F)c(F)c(-c2cnc3cc(-c4cnn(C)c4)c(N[C@H]4CCOC4)nn23)c1` [Example 19, (S)-3,4-Difluoro-N-methyl-5-(7-(1-methyl-1H-pyrazol-4-yl)-6-((tetrahydrofuran-3-yl)amino)imidazo[1,2-b]pyridazin-3-yl)benzamide], the IC50 in assay [1] was less than 10 nM; in assay [2] it was 10 to 100 nM; in assay [3], less than 10 nM.
With `CNC(=O)c1cc(F)c(F)c(-c2cnc3cc(-c4cnn(C)c4)c(OCCOC)nn23)c1` [Example 20, 3,4-Difluoro-5-(6-(2-methoxyethoxy)-7-(1-methyl-1H-pyrazol-4-yl)imidazo[1,2-b]pyridazin-3-yl)-N-methylbenzamide], the results for the concentration for half-maximal inhibition (IC50) in assay [1], in assay [2] and in assay [3] were less than 10 nM, 10 to 100 nM and less than 10 nM, respectively.
Turning to `CNC(=O)c1cc(F)c(F)c(-c2cnc3cc(-c4ccc(C)nc4)c(O[C@H]4CCOC4)nn23)c1` [Example 21, (S)-3,4-Difluoro-N-methyl-5-(7-(6-methylpyridin-3-yl)-6-((tetrahydrofuran-3-yl)oxy)imidazo[1,2-b]pyridazin-3-yl)benzamide], the 50% inhibitory concentration (IC50) is less than 10 nM in assay [1], 100 to 400 nM in assay [2] and 10 to 100 nM in assay [3].
For the compound `CNC(=O)c1cc(F)c(F)c(-c2cnc3cc(-c4cnn(C5COC5)c4)c(O[C@H]4CCOC4)nn23)c1` [Example 23, (S)-3,4-Difluoro-N-methyl-5-(7-(1-(oxetan-3-yl)-1H-pyrazol-4-yl)-6-((tetrahydrofuran-3-yl)oxy)imidazo[1,2-b]pyridazin-3-yl)benzamide], the IC50 is less than 10 nM in assay [1], 10 to 100 nM in assay [2] and less than 10 nM in assay [3].
With `CNC(=O)c1cc(F)c(F)c(-c2cnc3cc(-c4cnn(C(C)C)c4)c(O[C@H]4CCOC4)nn23)c1` [Example 24, (S)-3,4-Difluoro-5-(7-(1-isopropyl-1H-pyrazol-4-yl)-6-((tetrahydrofuran-3-yl)oxy)imidazo[1,2-b]pyridazin-3-yl)-N-methylbenzamide], the IC50 in assay [1], in assay [2] and in assay [3] was less than 10 nM each time.
Take `CNC(=O)c1cc(F)c(F)c(-c2cnc3cc(-c4cnn(C5CCC5)c4)c(O[C@H]4CCOC4)nn23)c1` [Example 25, (S)-3-(7-(1-Cyclobutyl-1H-pyrazol-4-yl)-6-((tetrahydrofuran-3-yl)oxy)imidazo[1,2-b]pyridazin-3-yl)-4,5-difluoro-N-methylbenzamide]: the IC50 in assay [1], in assay [2] and in assay [3] was less than 10 nM in each case.
`CNC(=O)c1cc(-c2cnc3cc(-c4cnn(C(C)(C)C#N)c4)c(O[C@H]4CCOC4)nn23)c(F)c(C(F)F)c1` [Example 26, (S)-3-(7-(1-(2-Cyanopropan-2-yl)-1H-pyrazol-4-yl)-6-((tetrahydrofuran-3-yl)oxy)imidazo[1,2-b]pyridazin-3-yl)-5-(difluoromethyl)-4-fluoro-N-methylbenzamide]: the IC50 was less than 10 nM in assay [1], 10 to 100 nM in assay [2] and less than 10 nM in assay [3].
On to `CNC(=O)c1cc(-c2cnc3cc(-c4cnn5ccccc45)c(O[C@H]4CCOC4)nn23)c(F)c(C(F)F)c1` [Example 27, (S)-3-(Difluoromethyl)-4-fluoro-N-methyl-5-(7-(pyrazolo[1,5-a]pyridin-3-yl)-6-((tetrahydrofuran-3-yl)oxy)imidazo[1,2-b]pyridazin-3-yl)benzamide], for which the IC50 in assay [1], in assay [2] and in assay [3] was 10 to 100 nM throughout.
For the compound `CNC(=O)c1cc(-c2cnc3cc(-c4cnn5c4CNCC5)c(O[C@H]4CCOC4)nn23)c(F)c(C(F)F)c1` [Example 28, (S)-3-(Difluoromethyl)-4-fluoro-N-methyl-5-(6-((tetrahydrofuran-3-yl)oxy)-7-(4,5,6,7-tetrahydropyrazolo[1,5-a]pyrazin-3-yl)imidazo[1,2-b]pyridazin-3-yl)benzamide], the half-inhibitory concentration (IC50) is 10 to 100 nM in assay [1], no less than 400 nM in assay [2] and 10 to 100 nM in assay [3].
In the case of `CNC(=O)c1cc(-c2cnc3cc(-c4cnn(Cc5cccnc5)c4)c(O[C@H]4CCOC4)nn23)c(F)c(C(F)F)c1` [Example 29, (S)-3-(Difluoromethyl)-4-fluoro-N-methyl-5-(7-(1-(pyridin-3-ylmethyl)-1H-pyrazol-4-yl)-6-((tetrahydrofuran-3-yl)oxy)imidazo[1,2-b]pyridazin-3-yl)benzamide], the concentration for half-maximal inhibition (IC50) in assay [1] is less than 10 nM; in assay [2], 10 to 100 nM; in assay [3] it was less than 10 nM.
Take `CNC(=O)c1cc(-c2cnc3cc(-c4ccc(C)c(C#N)c4)c(O[C@H]4CCOC4)nn23)c(F)c(C(F)F)c1` [Example 31, (S)-3-(7-(3-Cyano-4-methylphenyl)-6-((tetrahydrofuran-3-yl)oxy)imidazo[1,2-b]pyridazin-3-yl)-5-(difluoromethyl)-4-fluoro-N-methylbenzamide]: the IC50 in assay [1] was 10 to 100 nM; in assay [2] it was no less than 400 nM; in assay [3], 10 to 100 nM.
For `CNC(=O)c1cc(-c2cnc3cc(-c4ccc(N5CCCC5)nc4)c(O[C@H]4CCOC4)nn23)c(F)c(C(F)F)c1` [Example 32, (S)-3-(Difluoromethyl)-4-fluoro-N-methyl-5-(7-(6-(pyrrolidin-1-yl)pyridin-3-yl)-6-((tetrahydrofuran-3-yl)oxy)imidazo[1,2-b]pyridazin-3-yl)benzamide], the IC50 is less than 10 nM in assay [1], 100 to 400 nM in assay [2] and less than 10 nM in assay [3].
For `CNC(=O)c1cc(-c2cnc3cc(-c4ccc(N5CCCC5=O)nc4)c(O[C@H]4CCOC4)nn23)c(F)c(C(F)F)c1` [Example 33, (S)-3-(Difluoromethyl)-4-fluoro-N-methyl-5-(7-(6-(2-oxopyrrolidin-1-yl)pyridin-3-yl)-6-((tetrahydrofuran-3-yl)oxy)imidazo[1,2-b]pyridazin-3-yl)benzamide], the half-inhibitory concentration (IC50) is less than 10 nM in assay [1], 100 to 400 nM in assay [2] and 10 to 100 nM in assay [3].
As for `CNC(=O)c1cc(-c2cnc3cc(-c4cnn([C@H]5CC[C@H](O)CC5)c4)c(O[C@H]4CCOC4)nn23)c(F)c(C(F)F)c1` [Example 34, 3-(Difluoromethyl)-4-fluoro-5-(7-(1-((1r,4S)-4-hydroxycyclohexyl)-1H-pyrazol-4-yl)-6-(((S)-tetrahydrofuran-3-yl)oxy)imidazo[1,2-b]pyridazin-3-yl)-N-methylbenzamide], the 50% inhibitory concentration (IC50) in assay [1], in assay [2] and in assay [3] was less than 10 nM each time.
Regarding `CNC(=O)c1cc(-c2cnc3cc(-c4ccc(C(C)(C)O)nc4)c(O[C@H]4CCOC4)nn23)c(F)c(C(F)F)c1` [Example 35, (S)-3-(Difluoromethyl)-4-fluoro-5-(7-(6-(2-hydroxypropan-2-yl)pyridin-3-yl)-6-((tetrahydrofuran-3-yl)oxy)imidazo[1,2-b]pyridazin-3-yl)-N-methylbenzamide], the IC50 in assay [1] is less than 10 nM; in assay [2], 100 to 400 nM; in assay [3], 10 to 100 nM.
Take `CNC(=O)c1cc(-c2cnc3cc(-c4ccc(C(=O)NC)c(F)c4)c(O[C@H]4CCOC4)nn23)c(F)c(C(F)F)c1` [Example 36, (S)-3-(Difluoromethyl)-4-fluoro-5-(7-(3-fluoro-4-(methylcarbamoyl)phenyl)-6-((tetrahydrofuran-3-yl)oxy)imidazo[1,2-b]pyridazin-3-yl)-N-methylbenzamide]: the IC50 lay within 10 to 100 nM in assay [1], 100 to 400 nM in assay [2] and 10 to 100 nM in assay [3].
Consider `CNC(=O)c1cc(CO)c(F)c(-c2cnc3cc(-c4cnn(C)c4)c(O[C@H]4CCOC4)nn23)c1` [Example 40, (S)-4-Fluoro-3-(hydroxymethyl)-N-methyl-5-(7-(1-methyl-1H-pyrazol-4-yl)-6-((tetrahydrofuran-3-yl)oxy)imidazo[1,2-b]pyridazin-3-yl)benzamide], for which the half-inhibitory concentration (IC50) in assay [1] was less than 10 nM; in assay [2], 10 to 100 nM; in assay [3] it was less than 10 nM.
Turning to `CNC(=O)c1cc(CC#N)c(F)c(-c2cnc3cc(-c4cnn(C)c4)c(O[C@H]4CCOC4)nn23)c1` [Example 44, (S)-3-(Cyanomethyl)-4-fluoro-N-methyl-5-(7-(1-methyl-1H-pyrazol-4-yl)-6-((tetrahydrofuran-3-yl)oxy)imidazo[1,2-b]pyridazin-3-yl)benzamide], the IC50 was less than 10 nM in assay [1], 100 to 400 nM in assay [2] and 10 to 100 nM in assay [3].
For `CNC(=O)c1cc(CN2CCCC2)c(F)c(-c2cnc3cc(-c4cnn(C)c4)c(O[C@H]4CCOC4)nn23)c1` [Example 45, (S)-4-Fluoro-N-methyl-3-(7-(1-methyl-1H-pyrazol-4-yl)-6-((tetrahydrofuran-3-yl)oxy)imidazo[1,2-b]pyridazin-3-yl)-5-(pyrrolidin-1-ylmethyl)benzamide] the same measures were 10 to 100 nM, 10 to 100 nM and 10 to 100 nM.
`CNC(=O)c1cccc(-c2cnc3cc(-c4cnn(C)c4)c(O[C@H]4CCOC4)nn23)c1` [Example 63, (S)-N-Methyl-3-(7-(1-methyl-1H-pyrazol-4-yl)-6-((tetrahydrofuran-3-yl)oxy)imidazo[1,2-b]pyridazin-3-yl)benzamide] came in with an IC50 in assay [3] of less than 10 nM.

By IC50 is commonly meant the concentration that inhibits the measured activity by half. The low end stands for inhibition by little substance, the high end for a need for much substance.
